In one data set the target is T1, human PLK1 (Homo sapiens, UniProt P53350).
T1 construct: made in house; host or cells: Sf21 insect cells, recombinant baculovirus (pFASTBAC1, Bac-to-Bac)
Nature of the data set: In vitro enzymatic assay: phosphorylation of alpha casein by recombinant PLK1 (Example A). The class given is biochemical. As to conditions: recombinant FLAG-tagged PLK1, alpha casein substrate, 500 nmol/L ATP, [γ-32P]ATP, room temperature 40 min; read-out: pIC50 PLK1 (converted). The protocol:
Purified PLK1 may be obtained as follows. cDNA encoding human PLK1 SEQ ID No. 1, Accession Number: NM_005030 was isolated by polymerase chain reaction PCR with primers SEQ ID Nos. 2 and 3 and cloned into pcDNA4/His-Max-TOPO Invitrogen, USA according to the manufacturer's manual. PCR was performed using the vector as a template. In the PCR, primers containing sequences encoding a FLAG-tag DYKDDDDK in the amino-terminal region SEQ ID No. 4 and vector sequence SEQ ID No. 5 were used. After XbaI and XhoI digestion of the PCR product, the fragment was subcloned into pFASTBAC1 Invitrogen, USA. Recombinant baculoviruses were prepared according to the procedure of the Bac-to-Bac baculovirus expression system Invitrogen, USA. Sf21 cells were purchased from Invitrogen and grown in Sf-900 II SFM medium containing 10% fetal bovine serum, 50 gentamicin and 0.1% pluronic F-68 Invitrogen, USA at 28° C. For preparation of PLK1 enzyme, Sf21 cells were infected with recombinant baculoviruses and cultured at 28° C. for 72 h. Cells were lysed and FLAG-tagged PLK1 protein SEQ ID No. 6 was purified by affinity chromatography using anti-FLAG M2 affinity gel Sigma, USA.
The inhibition of PLK1 by the compounds was determined with the following assay that measures the phosphorylation of alpha casein by recombinant PLK1. Kinase reactions were performed at room temperature for 40 min in the kinase reaction buffer 25 mmol/L HEPES, pH 7.5, 10 mmol/L magnesium acetate, 1 mmol/L dithiothreitol containing 50 ng PLK1 enzyme, 0.1 μCi [γ-^32P]ATP, 500 nmol/L ATP and 3 μg alpha casein MP Biomedicals Inc., USA in a final volume of 50 μL. The incubation was terminated by the addition of 10% trichloroacetic acid Wako, Japan. Phosphorylated proteins were filtrated in GF/C filter plates Packard, USA with a Cell harvester Packard, USA and washed out free [γ-^32P]-ATP with 250 mmol/L phosphoric acid. Then, the plates were air dried for 60 min at 45° C., followed by the addition of 20 μL of MicroScint-O Packard, USA. The radioactivity was counted by a Top-count scintillation counter Packard, USA. The IC50 values for test compounds were calculated by Prism 3.02 GraphPad Software, USA.
pIC50 values are the negative of the log of the IC50s and may be calculated by non-linear curve fitting of the compound concentrations and fluorescence intensities to the standard pIC50 equation.

This note sets out measurements from patent US20100075973A1, “POLO-LIKE KINASE INHIBITORS” (TAKEDA PHARMACEUTICAL COMPANY LIMITED, priority 2008, published 2010).

Each structure is given as a SMILES string. Several values for one entry are separate records, joined by “and”; a condition that tells them apart may be missing. Equal values may be shown once.

T1 sequence (P53350 whole entry): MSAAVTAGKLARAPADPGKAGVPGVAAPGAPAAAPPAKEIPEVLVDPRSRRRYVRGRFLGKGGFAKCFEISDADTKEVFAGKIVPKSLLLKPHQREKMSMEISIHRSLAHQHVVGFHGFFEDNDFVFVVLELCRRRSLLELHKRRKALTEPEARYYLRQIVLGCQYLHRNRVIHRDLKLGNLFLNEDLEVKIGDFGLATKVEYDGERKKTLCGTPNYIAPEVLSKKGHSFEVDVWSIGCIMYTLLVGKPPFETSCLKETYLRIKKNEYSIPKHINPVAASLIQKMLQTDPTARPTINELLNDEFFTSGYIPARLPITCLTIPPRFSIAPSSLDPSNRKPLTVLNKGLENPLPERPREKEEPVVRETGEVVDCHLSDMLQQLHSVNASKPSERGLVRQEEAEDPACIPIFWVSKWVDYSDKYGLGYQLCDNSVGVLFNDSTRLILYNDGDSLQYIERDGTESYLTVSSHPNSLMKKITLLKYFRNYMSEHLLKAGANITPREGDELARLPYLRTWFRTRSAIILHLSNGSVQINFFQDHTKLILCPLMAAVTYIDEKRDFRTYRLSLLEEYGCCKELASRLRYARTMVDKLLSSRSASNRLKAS

As to `CC[C@@H]1c2c(C#N)ncn2-c2cnc(Nc3cc(F)c(C(=O)N[C@H]4CC[C@H](N5CCN(CC6CC6)CC5)CC4)cc3OC)nc2N1C(C)C` [Example 1], the melting point (commonly the temperature, or range, at which the solid turns liquid) was 251 to 255 °C and 250 to 254 °C.

`CC[C@@H]1c2c(C#N)ncn2-c2cnc(Nc3ccc(C(=O)NC4CCC(N5CCN(C)CC5)CC4)cc3OC)nc2N1C1CCCC1` (some centres unmarked) [Example 2] came in with a melting point of 187 to 192 °C.

With `CC[C@@H]1c2c(C#N)ncn2-c2cnc(Nc3ccc(C(=O)NC4CCC(N5CCN(CC)CC5)CC4)cc3OC)nc2N1C1CCCC1` (some centres unmarked) [Example 3], the melting point was in the range of 170 to 173 °C.

Take `CC[C@@H]1c2c(C#N)ncn2-c2cnc(Nc3ccc(C(=O)NC4CCC(N5CCN(C(C)C)CC5)CC4)cc3OC)nc2N1C1CCCC1` (some centres unmarked) [Example 4]: the melting point lay within 216 to 220 °C.

Regarding `CC[C@@H]1c2c(C#N)ncn2-c2cnc(Nc3ccc(C(=O)N[C@H]4CC[C@H](N5CCN(CC6CC6)CC5)CC4)cc3OC)nc2N1C1CCCC1` [Example 5], the melting point is 186 to 190 °C.

Turning to `CC[C@@H]1c2c(C#N)ncn2-c2cnc(Nc3cc(F)c(C(=O)NC4CCC(N5CCN(C)CC5)CC4)cc3OC)nc2N1C1CCCC1` (some centres unmarked) [Example 6], the melting point was > 205 °C.

In turn, `CC[C@@H]1c2c(C#N)ncn2-c2cnc(Nc3cc(F)c(C(=O)NC4CCC(N5CCN(CC(C)C)CC5)CC4)cc3OC)nc2N1C1CCCC1` (some centres unmarked) [Example 8] registered a melting point of 155 to 158 °C.

`CC[C@@H]1c2c(C#N)ncn2-c2cnc(Nc3ccc(C(=O)NC4CCC(N5CCN(C)CC5)CC4)cc3OC)nc2N1C(C)C` (some centres unmarked) [Example 9]: the melting point lay within 195 to 198 °C.

Regarding `CC[C@@H]1c2c(C#N)ncn2-c2cnc(Nc3ccc(C(=O)NC4CCC(N5CCN(CC6CC6)CC5)CC4)cc3OC)nc2N1C(C)C` (some centres unmarked) [Example 11], the melting point is 198 to 204 °C.

In turn, `CC[C@@H]1c2c(C#N)ncn2-c2cnc(Nc3ccc(C(=O)NC4CCC(N5CCN(CC(C)C)CC5)CC4)cc3OC)nc2N1C(C)C` (some centres unmarked) [Example 12] displayed a melting point of 165 to 170 °C.

For `CC[C@@H]1c2c(C#N)ncn2-c2cnc(Nc3cc(F)c(C(=O)NC4CCC(N5CCN(CC(C)C)CC5)CC4)cc3OC)nc2N1C(C)C` (some centres unmarked) [Example 18], the melting point lay within 219 to 222 °C.

With `CC[C@@H]1c2c(C#N)ncn2-c2cnc(Nc3ccc(C(=O)NC4CCN(C5CCN(CC)CC5)CC4)cc3OC)nc2N1C(C)C` [Example 19, (R)-4-(7-Cyano-6-ethyl-5-isopropyl-5,6-dihydroimidazo[1,5-f]pteridin-3-ylamino)-N-(1′-ethyl-1,4′-bipiperidin-4-yl)-3-methoxybenzamide], the IC50 at human PLK1 was 2 nM.

Turning to `CC[C@@H]1c2c(C#N)ncn2-c2cnc(Nc3cc(F)c(C(=O)NC4CCN(C5CCN(CC)CC5)CC4)cc3OC)nc2N1C(C)C` [Example 20, (R)-4-(7-Cyano-6-ethyl-5-isopropyl-5,6-dihydroimidazo[1,5-f]pteridin-3-ylamino)-N-(1′-ethyl-1,4′-bipiperidin-4-yl)-2-fluoro-5-methoxybenzamide], at human PLK1, the IC50 was 3.98 nM.

For the compound `CC[C@@H]1c2c(C#N)ncn2-c2cnc(Nc3ccc(C(=O)NC4CCN(C5CCN(CC6CC6)CC5)CC4)cc3OC)nc2N1C(C)C` [Example 21, (R)-4-(7-Cyano-6-ethyl-5-isopropyl-5,6-dihydroimidazo[1,5-f]pteridin-3-ylamino)-N-(1′-(cyclopropylmethyl)-1,4′-bipiperidin-4-yl)-3-methoxybenzamide], the IC50 at human PLK1 is 3.16 nM.

Take `CC[C@@H]1c2c(C#N)ncn2-c2cnc(Nc3cc(F)c(C(=O)NC4CCN(C5CCN(CC6CC6)CC5)CC4)cc3OC)nc2N1C(C)C` [Example 22, (R)-4-(7-Cyano-6-ethyl-5-isopropyl-5,6-dihydroimidazo[1,5-f]pteridin-3-ylamino)-N-(1′-(cyclopropylmethyl)-1,4′-bipiperidin-4-yl)-2-fluoro-5-methoxybenzamide]: at human PLK1, the IC50 was 3.98 nM.

Take `CC[C@@H]1c2c(C#N)ncn2-c2cnc(Nc3ccc(C(=O)NC4CCN(C5CCN(CC(C)C)CC5)CC4)cc3OC)nc2N1C(C)C` [Example 23, (R)-4-(7-Cyano-6-ethyl-5-isopropyl-5,6-dihydroimidazo[1,5-f]pteridin-3-ylamino)-N-(1′-isobutyl-1,4′-bipiperidin-4-yl)-3-methoxybenzamide]: the melting point fell in the range of 165 to 170 °C.

With `CC[C@@H]1c2c(C#N)ncn2-c2cnc(Nc3ccc(C(=O)NC4CCN(C5CCN(CC6CC6)CC5)CC4)cc3OC)nc2N1C1CCCC1` [Example 26, (R)-4-(7-Cyano-5-cyclopentyl-6-ethyl-5,6-dihydroimidazo[1,5-f]pteridin-3-ylamino)-N-(1′-(cyclopropylmethyl)-1,4′-bipiperidin-4-yl)-3-methoxybenzamide], the IC50 at human PLK1 is 1 nM.

With `CC[C@@H]1c2c(C#N)ncn2-c2cnc(Nc3ccc(C(=O)NC4CCN(C5CCN(CC(C)C)CC5)CC4)cc3OC)nc2N1C1CCCC1` [Example 27, (R)-4-(7-Cyano-5-cyclopentyl-6-ethyl-5,6-dihydroimidazo[1,5-f]pteridin-3-ylamino)-N-(1′-isobutyl-1,4′-bipiperidin-4-yl)-3-methoxybenzamide], the IC50 at human PLK1 was 2 nM.

For `CC[C@@H]1c2c(C#N)ncn2-c2cnc(Nc3cc(F)c(C(=O)NC4CCN(C5CCN(CC(C)C)CC5)CC4)cc3OC)nc2N1C1CCCC1` [Example 29, (R)-4-(7-Cyano-5-cyclopentyl-6-ethyl-5,6-dihydroimidazo[1,5-f]pteridin-3-ylamino)-2-fluoro-N-(1′-isobutyl-1,4′-bipiperidin-4-yl)-5-methoxybenzamide], the IC50 at human PLK1 was 1.26 nM.

On to `CC[C@@H]1c2c(C#N)ncn2-c2cnc(Nc3cc(F)c(C(=O)Nc4cccc(CN5CCN(C)CC5)c4)cc3OC)nc2N1C(C)C` [Example 31, (R)-4-(7-Cyano-6-ethyl-5-isopropyl-5,6-dihydroimidazo[1,5-f]pteridin-3-ylamino)-2-fluoro-5-methoxy-N-(3-((4-methylpiperazin-1-yl)methyl)phenyl)benzamide], for which, on human PLK1, the IC50 was 10 nM.

Take `CC[C@@H]1c2c(C#N)ncn2-c2cnc(Nc3ccc(C(=O)NC4CN(C5CCN(CC6CC6)CC5)C4)cc3OC)nc2N1C(C)C` [Example 37, (R)-4-(7-Cyano-6-ethyl-5-isopropyl-5,6-dihydroimidazo[1,5-f]pteridin-3-ylamino)-N-(1-(1-(cyclopropylmethyl)piperidin-4-yl)azetidin-3-yl)-3-methoxybenzamide]: the IC50 on human PLK1 is 3.16 nM.

Regarding `CC[C@@H]1c2c(C#N)ncn2-c2cnc(Nc3cc(F)c(C(=O)NC4CN(C5CCN(CC6CC6)CC5)C4)cc3OC)nc2N1C(C)C` [Example 38, (R)-4-(7-Cyano-6-ethyl-5-isopropyl-5,6-dihydroimidazo[1,5-f]pteridin-3-ylamino)-N-(1-(1-(cyclopropylmethyl)piperidin-4-yl)azetidin-3-yl)-2-fluoro-5-methoxybenzamide], on human PLK1, the IC50 is 3.16 nM.

Turning to `CC[C@@H]1c2c(C#N)ncn2-c2cnc(Nc3ccc(C(=O)N[C@H]4CC[C@H](N5CCN(CC6CC6)CC5)CC4)c(F)c3)nc2N1C(C)C` [Example 45], the melting point fell in the range of 219 to 222 °C.
